Test results: patent US9315494B2, “Alkyl-amide-substituted pyridyl compounds useful as modulators of IL-12, IL-23 and/or IFNα responses” (Bristol-Myers Squibb Company, priority 2012, dated 2016)
Where two headings read alike, the source gives them in different places.

Experiments:
[1] = system: IL-23-stimulated STAT-dependent luciferase reporter in Kit225 T cells; assay: Kit225 T cell assay, IL-23 stimulated STAT-dependent luciferase reporter; format: cell-based, human
Method in brief: (§1)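 Kit225 T cells carrying a stably integrated STAT-luciferase reporter, in RPMI with 10% heat-inactivated FBS, were stimulated with 20 ng/mL IL-23 or 200 U/mL IFNα for 5-6 h. Readout was luminescence from the luciferase reporter.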

[2] = system: IFNα-stimulated STAT-dependent luciferase reporter in Kit225 T cells; assay: Kit225 T cell assay, IFNα stimulated STAT-dependent luciferase reporter; format: cell-based, human
Method in brief: as §1

[3] = Kit225 T cells, 20 ng/mL human recombinant IL-23, 5-6 hours, luciferase, read-out: IL23 (Kit225 T Cell Inhibition Data)
[4] = Kit225 T cells, 200 U/mL human recombinant IFNα, 5-6 hours, luciferase, read-out: IFNα (Kit225 T Cell Inhibition Data)

Compound	IC50 [1, 3]	IC50 [2, 4]	IC50 ([1]; Homo sapiens, KIT225, read-out: IL23 (Kit225 T Cell Inhibition Data))	IC50 ([2]; Homo sapiens, KIT225, read-out: IFNα (Kit225 T Cell Inhibition Data))
CNC(=O)c1cnc(Nc2ccc(F)cn2)cc1Nc1ccc(OC)cc1S(C)(=O)=O [Example 6]	91 nM	110 nM		
CNC(=O)c1cnc(Nc2ccc(F)cn2)cc1Nc1ccc(C(=O)N2CCC(F)(F)C2)cc1OC [Example 247]	409 nM	260 nM		
CNC(=O)c1cnc(Nc2ccc(F)cn2)cc1Nc1ccccc1NC(C)=O [Example 280]	5050 nM	5990 nM		
CNC(=O)c1cnc(Nc2cccnn2)cc1Nc1ccccc1S(C)(=O)=O [Example 36]	1310 nM	700 nM		
CNC(=O)c1cnc(Nc2ccc3[nH]ccc3n2)cc1Nc1ccc(Cl)cc1OC [Example 114]	4550 nM	1540 nM		
CNC(=O)c1cnc(Nc2cc(C(N)=O)ccn2)cc1Nc1cccc(F)c1OC [Example 276]	1340 nM	1170 nM		
CNC(=O)c1cnc(Nc2ccc(F)cn2)cc1Nc1ccc(F)cc1 [Example 196]	4380 nM	6970 nM		
CNC(=O)c1cnc(Nc2cc(C(=O)N(C)C)ccn2)cc1Nc1cc(F)cc(F)c1OC [Example 274]	336 nM	190 nM		
CNC(=O)c1cnc(Nc2cc(C)c(F)cn2)cc1Nc1cccc(C(=O)NC2CC2)c1OC [Example 318]	130 nM	130 nM		
CCNC(=O)c1cccc(Nc2cc(Nc3cc(C)c(F)cn3)ncc2C(=O)NC)c1OC [Example 355]	30 nM	30 nM		
CCc1ncccc1Nc1cc(Nc2cc(C)nc(C)n2)ncc1C(=O)NC [Example 402]	250 nM	330 nM		
CNC(=O)c1cnc(Nc2cc(C)ccn2)cc1Nc1cc(F)cc(F)c1OC [Example 129]	86.6 nM	80 nM		
CNC(=O)c1cnc(Nc2cc(C)c(F)cn2)cc1Nc1cccc(-c2ncnn2C)c1OC [Example 385]			70 nM	20 nM
CNC(=O)c1cnc(Nc2cc(C)c(F)cn2)cc1Nc1ccc(C(=O)N2CC(F)(F)C2)cc1S(C)(=O)=O [Example 413]	470 nM	460 nM		
CNC(=O)c1cnc(Nc2ccc(C)cn2)cc1Nc1ccccc1C(N)=O [Example 72]	578 nM	380 nM		
CNC(=O)c1cnc(Nc2cc(C)c(C#N)cn2)cc1Nc1ccccc1S(C)(=O)=O [Example 447]	200 nM	160 nM		
CNC(=O)c1cnc(Nc2cc(C)nc(C)n2)cc1Nc1cccc(-c2ncn(CC(F)(F)F)n2)c1OC [Example 380]	40 nM	30 nM		
CCS(=O)(=O)c1ccccc1Nc1cc(Nc2ccccn2)ncc1C(=O)NC [Example 31]	1860 nM	1230 nM		
CNC(=O)c1cnc(Nc2ccc(F)cn2)cc1Nc1ccccc1C(=O)N(C)C [Example 251]	1080 nM	670 nM		
CNC(=O)c1cnc(Nc2cc(C)nc(C)n2)cc1Nc1cccc(-c2nc(C)n(CCF)n2)c1OC [Example 368]	9.45 nM	10 nM		
CCNC(=O)c1cnc(Nc2ccc(F)cn2)cc1Nc1ccccc1C(N)=O [Example 295]	7300 nM	3290 nM		
CNC(=O)c1cnc(Nc2cnc(C)cn2)cc1Nc1ccccc1S(C)(=O)=O [Example 40]	130 nM	130 nM		
CNC(=O)c1cnc(Nc2ccc(F)cn2)cc1Nc1ccccc1C(N)=O [Example 63]	774 nM	410 nM		
CCS(=O)(=O)c1ccccc1Nc1cc(Nc2cc(C#N)ccn2)ncc1C(=O)NC [Example 33]	612 nM	660 nM		
CNC(=O)c1cnc(Nc2ccccn2)cc1Nc1ccccc1NS(C)(=O)=O [Example 428]	90 nM	110 nM		
CNC(=O)c1cnc(Nc2ccc(F)cn2)cc1Nc1ccc(C(=O)NCCc2c[nH]cn2)cc1OC [Example 249]	10500 nM	6410 nM		

The remaining molecules from weak to strong by IC50 [1, 3], led by results:

IC50 [1, 3]	IC50 [2, 4]	Compound	IC50 ([1]; Homo sapiens, KIT225, read-out: IL23 (Kit225 T Cell Inhibition Data))	IC50 ([2]; Homo sapiens, KIT225, read-out: IFNα (Kit225 T Cell Inhibition Data))
7940 nM	10200 nM	CNC(=O)c1cnc(Nc2ccc3ccccc3n2)cc1NC1CCC(F)CC1 (stereo not shown) [Example 287]		
7810 nM	7850 nM	CNC(=O)c1cnc(Nc2ccc(F)cn2)cc1Nc1ccccc1-c1nnc[nH]1 [Example 186]		
4440 nM	2100 nM	CNC(=O)c1cnc(Nc2ccc(Cl)cn2)cc1Nc1ccc(F)cc1OC [Example 158]		
3910 nM	3250 nM	CNC(=O)c1cnc(Nc2cc(C(N)=O)ccn2)cc1Nc1ccc(Cl)cc1OC [Example 97]		
2860 nM	890 nM	CNC(=O)c1cnc(Nc2ccc(S(=O)(=O)N(C)C)cn2)cc1Nc1ccccc1C(N)=O [Example 88]		
2820 nM	2580 nM	CNC(=O)c1cnc(Nc2ccc(F)cn2)cc1Nc1ccc(N2CCOCC2)cc1OC [Example 187]		
2190 nM	750 nM	CNC(=O)c1cnc(Nc2cccc(-c3ccccc3)n2)cc1Nc1ccc(Cl)cc1OC [Example 116]		
1980 nM	480 nM	CNC(=O)c1cnc(Nc2cccc(C(F)(F)F)n2)cc1Nc1ccc(Cl)cc1OC [Example 117]		
1740 nM	2710 nM	CNC(=O)c1cnc(Nc2ccc(F)cn2)cc1Nc1ccc(C(N)=O)cc1 [Example 242]		
1330 nM	500 nM	CNC(=O)c1cnc(Nc2ccc(F)cn2)cc1Nc1cccnc1OC [Example 313]		
1300 nM	990 nM	CNC(=O)c1cnc(Nc2ccc(C)cn2)cc1Nc1ccc(Cl)cc1OC [Example 111]		
904 nM	1300 nM	CNC(=O)c1cnc(Nc2ccc(F)cn2)cc1Nc1ccc(C(=O)N2CCCC2)cc1 [Example 200]		
751 nM	300 nM	CNC(=O)c1cnc(Nc2cc(C)ccn2)cc1Nc1ccc(F)cc1OC [Example 148]		
742 nM	410 nM	CNC(=O)c1cnc(Nc2ccc(N3CCCC3=O)cn2)cc1Nc1ccc(F)cc1OCF [Example 142]		
577 nM	600 nM	CNC(=O)c1ccnc(Nc2cc(Nc3ccc(F)c(F)c3OC)c(C(=O)NC)cn2)c1 [Example 257]		
462 nM	640 nM	CNC(=O)c1cnc(Nc2ccc(C#N)cn2)cc1Nc1ccc(F)cc1OC [Example 124]		
450 nM	130 nM	CNC(=O)c1cnc(Nc2ccn(C(C)C)n2)cc1Nc1ccccc1S(C)(=O)=O [Example 442]		
360 nM	190 nM	CNC(=O)c1cnc(Nc2ccn(C)n2)cc1Nc1ccccc1S(C)(=O)=O [Example 437]		
280 nM	130 nM	CNC(=O)c1cnc(Nc2cc(C)nc(C)n2)cc1Nc1ccccc1S(C)(=O)=O [Example 300]		
260 nM	330 nM	CNC(=O)c1cnc(Nc2ccc3cnccc3n2)cc1Nc1ccccc1S(C)(=O)=O [Example 417]		
188 nM	210 nM	CNC(=O)c1cnc(Nc2cc(F)ccn2)cc1Nc1cc(F)cc(F)c1OC [Example 137]		
170 nM	350 nM	CNC(=O)c1cnc(Nc2cc(OC)ncn2)cc1Nc1ccccc1S(C)(=O)=O [Example 419]		
160 nM	50 nM	CNC(=O)c1cnc(Nc2ccccn2)cc1Nc1ccccc1S(N)(=O)=O [Example 430]		
130 nM	170 nM	CNC(=O)c1cnc(Nc2ccc(F)cn2)cc1Nc1cc(F)ccc1S(C)(=O)=O [Example 55]		
110 nM	80 nM	CNC(=O)c1cnc(Nc2cc(C)c(F)cn2)cc1Nc1cccc(C(=O)NCCc2ccccc2)c1OC [Example 337]		
109 nM	50 nM	CNC(=O)c1cnc(Nc2ccccn2)cc1Nc1ccc(Cl)cc1S(C)(=O)=O [Example 12]		
50 nM	30 nM	CNC(=O)c1cnc(Nc2cc(C)c(F)cn2)cc1Nc1cccc(C(=O)NC)c1OC [Example 320]		
50 nM	20 nM	CNC(=O)c1cnc(Nc2cc(C)nc(C)n2)cc1Nc1cccc(-c2ncnn2CC(F)(F)F)c1OC [Example 381]		
9.35 nM	3.47 nM	CNC(=O)c1cnc(Nc2ccc(C#N)cn2)cc1Nc1cccc(-c2ncn(C)n2)c1OC [Example 376]		
4.89 nM	3.99 nM	CNC(=O)c1cnc(Nc2cc(C)c(F)cn2)cc1Nc1cccc(-c2ncn(C)n2)c1OC [Example 371]		
